According to ChEMBL document CHEMBL3351955, “Identification of potent and selective hydantoin inhibitors of aggrecanase-1 and aggrecanase-2 that are efficacious in both chemical and surgical models of osteoarthritis” (J Med Chem, 2014):

How the values were obtained:
Stromelysin-1 = Stromelysin-1 (Homo sapiens, UniProt P08254); assay: Inhibition of human MMP3 using Mca-PQG1 peptide substrate assessed as substrate cleavage after 2 to 4 hrs
[1] = Clearance in Sprague-Dawley rat; format: ADME, organism-based; conditions: in vivo
[2] = target: T1, A disintegrin and metalloproteinase with thrombospondin motifs 5 (Homo sapiens, UniProt Q9UNA0); assay: Inhibition of human ADAMTS-5 using VQTVTWPDMELPLPRNITEGEARGSVILTVKPIFEVSPSPLKG peptide substrate by AlphaScreen assay in presence of 50% rat plasma
T1 sequence (Q9UNA0 whole entry): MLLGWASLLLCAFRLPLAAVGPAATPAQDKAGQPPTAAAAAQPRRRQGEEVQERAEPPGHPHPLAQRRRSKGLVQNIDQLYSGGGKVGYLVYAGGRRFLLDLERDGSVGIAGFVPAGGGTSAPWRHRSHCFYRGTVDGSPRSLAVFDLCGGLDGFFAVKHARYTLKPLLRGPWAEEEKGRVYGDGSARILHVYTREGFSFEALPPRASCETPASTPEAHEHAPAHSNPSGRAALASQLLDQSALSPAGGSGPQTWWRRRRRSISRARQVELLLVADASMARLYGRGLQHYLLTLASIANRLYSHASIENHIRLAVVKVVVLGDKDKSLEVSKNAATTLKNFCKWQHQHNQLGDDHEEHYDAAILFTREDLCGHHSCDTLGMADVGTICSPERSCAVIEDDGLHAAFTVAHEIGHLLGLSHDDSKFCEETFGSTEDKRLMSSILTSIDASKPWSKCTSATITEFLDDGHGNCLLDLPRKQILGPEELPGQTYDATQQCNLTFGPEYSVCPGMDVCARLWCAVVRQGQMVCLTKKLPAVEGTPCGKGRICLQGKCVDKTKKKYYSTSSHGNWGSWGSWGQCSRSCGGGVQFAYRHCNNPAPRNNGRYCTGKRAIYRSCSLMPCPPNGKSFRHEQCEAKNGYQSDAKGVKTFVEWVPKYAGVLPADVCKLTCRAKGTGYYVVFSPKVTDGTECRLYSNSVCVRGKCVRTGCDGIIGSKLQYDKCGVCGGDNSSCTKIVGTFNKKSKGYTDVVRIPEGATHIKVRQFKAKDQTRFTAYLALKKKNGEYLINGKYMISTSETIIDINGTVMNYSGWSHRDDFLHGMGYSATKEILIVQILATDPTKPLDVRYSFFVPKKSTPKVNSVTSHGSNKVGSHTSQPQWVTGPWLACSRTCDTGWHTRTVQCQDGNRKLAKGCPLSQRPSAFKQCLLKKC

[3] = Half life in Sprague-Dawley rat at 10 mg/kg, po; format: ADME, organism-based; parameters: dose 10 mg/kg, route oral; conditions: in vivo
Rattus norvegicus [4] = assay: Reduction in ADAMTS-4/ADAMTS-5-mediated aggrecan cleavage products in po dosed Lewis rat MIA model assessed as aggrecanase-cleaved fragments treatment starting from day 3 and single dose given on day 7 followed by animal sacrificed 4 hrs later by NITEGE sandwich ELISA assay; format: functional
[5] = Cmax in Sprague-Dawley rat at 10 mg/kg, po; format: ADME, organism-based; parameters: dose 10 mg/kg, route oral; conditions: in vivo
[6] = AUC in Sprague-Dawley rat at 10 mg/kg, po; format: ADME, organism-based; parameters: dose 10 mg/kg, route oral; conditions: plasma
[7] = target: Matrix metalloproteinase-14 (Homo sapiens, UniProt P50281); assay: Inhibition of human MMP14 using Mca-PQG1 peptide substrate assessed as substrate cleavage after 2 to 4 hrs
[8] = target: 72 kDa type IV collagenase (Homo sapiens, UniProt P08253); assay: Inhibition of human MMP2 using Mca-PQG1 peptide substrate assessed as substrate cleavage after 2 to 4 hrs
Cytochrome P450 2D6 = Cytochrome P450 2D6 (Homo sapiens, UniProt P10635); assay: Inhibition of human CYP2D6; format: ADME
[9] = target: T2, A disintegrin and metalloproteinase with thrombospondin motifs 4 (Homo sapiens, UniProt O75173); assay: Inhibition of human ADAMTS-4 using VQTVTWPDMELPLPRNITEGEARGSVILTVKPIFEVSPSPLKG peptide substrate by AlphaScreen assay
T2 sequence (O75173 whole entry): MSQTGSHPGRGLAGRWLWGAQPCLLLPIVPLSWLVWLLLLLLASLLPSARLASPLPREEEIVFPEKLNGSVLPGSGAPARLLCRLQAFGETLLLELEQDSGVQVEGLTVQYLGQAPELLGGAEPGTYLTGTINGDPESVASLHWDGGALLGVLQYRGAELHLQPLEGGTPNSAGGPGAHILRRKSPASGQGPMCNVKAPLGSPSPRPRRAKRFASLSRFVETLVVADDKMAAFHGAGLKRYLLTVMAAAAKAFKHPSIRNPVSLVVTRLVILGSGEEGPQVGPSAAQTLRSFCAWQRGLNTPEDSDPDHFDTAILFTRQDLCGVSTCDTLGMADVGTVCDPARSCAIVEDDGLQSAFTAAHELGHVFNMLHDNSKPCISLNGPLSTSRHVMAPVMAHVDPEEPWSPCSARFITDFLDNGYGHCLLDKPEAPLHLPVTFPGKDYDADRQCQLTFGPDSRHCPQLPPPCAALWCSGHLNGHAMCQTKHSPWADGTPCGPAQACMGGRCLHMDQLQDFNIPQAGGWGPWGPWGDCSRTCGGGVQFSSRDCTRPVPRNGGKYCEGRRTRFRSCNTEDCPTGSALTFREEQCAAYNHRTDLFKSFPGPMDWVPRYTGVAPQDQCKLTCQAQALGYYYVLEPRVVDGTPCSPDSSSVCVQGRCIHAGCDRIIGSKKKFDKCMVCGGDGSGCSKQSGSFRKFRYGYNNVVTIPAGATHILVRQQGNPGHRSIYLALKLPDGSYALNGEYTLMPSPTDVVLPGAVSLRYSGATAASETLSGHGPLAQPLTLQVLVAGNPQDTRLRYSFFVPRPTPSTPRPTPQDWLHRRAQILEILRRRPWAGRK

Cytochrome P450 2C9 = Cytochrome P450 2C9 (Homo sapiens, UniProt P11712); assay: Inhibition of human CYP2C9; format: ADME
[10] = target: T1, A disintegrin and metalloproteinase with thrombospondin motifs 5; assay: Inhibition of human ADAMTS-5 using VQTVTWPDMELPLPRNITEGEARGSVILTVKPIFEVSPSPLKG peptide substrate by AlphaScreen assay
[11] = Plasma concentration in rat at 10 mg/kg, po after 2 hrs; format: ADME, organism-based; parameters: dose 10 mg/kg, route oral
[12] = Oral bioavailability in Sprague-Dawley rat; format: ADME, organism-based; conditions: in vivo
Cytochrome P450 3A4 = Cytochrome P450 3A4 (Homo sapiens, UniProt P08684); assay: Inhibition of human CYP3A4; format: ADME
Collagenase 3 = Collagenase 3 (Homo sapiens, UniProt P45452); assay: Inhibition of human MMP13 using Mca-PQG1 peptide substrate assessed as substrate cleavage after 2 to 4 hrs
[13] = Plasma concentration in rat at 10 mg/kg, po after 8 hrs; format: ADME, organism-based; parameters: dose 10 mg/kg, route oral
[14] = Metabolic stability in rat liver microsomes assessed as compound degradation after 30 mins by LC-MS analysis; format: ADME, Microsome; conditions: read-out: Drug degradation
[15] = Metabolic stability in human liver microsomes assessed as compound degradation after 30 mins by LC-MS analysis; format: ADME, Microsome; conditions: read-out: Drug degradation
[16] = Tmax in Sprague-Dawley rat at 10 mg/kg, po; format: ADME, organism-based; parameters: dose 10 mg/kg, route oral; conditions: in vivo
[17] = target: Disintegrin and metalloproteinase domain-containing protein 17 (Homo sapiens, UniProt P78536); assay: Inhibition of human TACE using Mca-PQG1 peptide substrate assessed as substrate cleavage after 2 to 4 hrs
Rattus norvegicus [18] = species on record: Rattus norvegicus; assay: Reduction in meniscal tear-induced osteoarthritis total joint score in chronic BID Lewis rat surgical model; format: functional, organism-based

Chain of 72 kDa type IV collagenase (P08253 whole entry): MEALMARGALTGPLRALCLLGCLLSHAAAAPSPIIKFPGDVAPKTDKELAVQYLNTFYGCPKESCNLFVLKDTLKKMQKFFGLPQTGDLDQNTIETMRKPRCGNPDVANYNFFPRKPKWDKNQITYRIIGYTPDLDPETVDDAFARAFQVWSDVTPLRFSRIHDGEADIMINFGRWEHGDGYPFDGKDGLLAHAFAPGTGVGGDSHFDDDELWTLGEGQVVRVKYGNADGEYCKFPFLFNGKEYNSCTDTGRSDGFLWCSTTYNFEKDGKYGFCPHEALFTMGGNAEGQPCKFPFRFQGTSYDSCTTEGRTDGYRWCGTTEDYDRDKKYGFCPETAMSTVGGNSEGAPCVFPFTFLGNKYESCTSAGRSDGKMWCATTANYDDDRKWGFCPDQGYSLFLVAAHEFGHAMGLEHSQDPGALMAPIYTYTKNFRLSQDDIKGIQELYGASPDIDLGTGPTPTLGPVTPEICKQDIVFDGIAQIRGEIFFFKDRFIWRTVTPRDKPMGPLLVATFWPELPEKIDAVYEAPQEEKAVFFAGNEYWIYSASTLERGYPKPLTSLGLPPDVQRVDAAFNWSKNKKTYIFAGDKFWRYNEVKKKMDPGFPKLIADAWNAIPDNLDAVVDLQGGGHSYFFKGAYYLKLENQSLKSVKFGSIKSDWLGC
Chain of Disintegrin and metalloproteinase domain-containing protein 17 (P78536 whole entry, the tested form may be a part): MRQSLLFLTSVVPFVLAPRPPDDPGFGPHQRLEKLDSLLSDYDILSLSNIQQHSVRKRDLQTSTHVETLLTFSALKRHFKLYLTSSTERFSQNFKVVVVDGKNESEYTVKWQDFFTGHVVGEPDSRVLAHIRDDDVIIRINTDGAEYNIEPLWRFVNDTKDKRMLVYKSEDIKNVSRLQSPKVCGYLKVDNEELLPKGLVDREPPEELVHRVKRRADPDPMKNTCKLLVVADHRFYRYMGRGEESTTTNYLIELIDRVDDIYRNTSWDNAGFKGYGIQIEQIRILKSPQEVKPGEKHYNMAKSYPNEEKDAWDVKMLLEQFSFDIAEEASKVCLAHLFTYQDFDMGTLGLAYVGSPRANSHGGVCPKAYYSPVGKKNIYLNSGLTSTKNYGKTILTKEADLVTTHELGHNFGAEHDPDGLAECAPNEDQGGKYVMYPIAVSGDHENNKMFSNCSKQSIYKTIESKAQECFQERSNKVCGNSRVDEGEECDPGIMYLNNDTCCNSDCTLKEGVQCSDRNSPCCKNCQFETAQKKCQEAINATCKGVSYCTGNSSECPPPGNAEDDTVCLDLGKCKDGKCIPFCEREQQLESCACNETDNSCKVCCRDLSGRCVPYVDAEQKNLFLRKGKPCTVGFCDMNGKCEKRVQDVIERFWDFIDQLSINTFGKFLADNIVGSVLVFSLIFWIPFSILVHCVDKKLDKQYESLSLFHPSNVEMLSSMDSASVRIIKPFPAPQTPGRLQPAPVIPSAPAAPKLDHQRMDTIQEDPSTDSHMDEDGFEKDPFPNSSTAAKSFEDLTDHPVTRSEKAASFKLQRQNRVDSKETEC
Chain of Stromelysin-1 (P08254 whole entry): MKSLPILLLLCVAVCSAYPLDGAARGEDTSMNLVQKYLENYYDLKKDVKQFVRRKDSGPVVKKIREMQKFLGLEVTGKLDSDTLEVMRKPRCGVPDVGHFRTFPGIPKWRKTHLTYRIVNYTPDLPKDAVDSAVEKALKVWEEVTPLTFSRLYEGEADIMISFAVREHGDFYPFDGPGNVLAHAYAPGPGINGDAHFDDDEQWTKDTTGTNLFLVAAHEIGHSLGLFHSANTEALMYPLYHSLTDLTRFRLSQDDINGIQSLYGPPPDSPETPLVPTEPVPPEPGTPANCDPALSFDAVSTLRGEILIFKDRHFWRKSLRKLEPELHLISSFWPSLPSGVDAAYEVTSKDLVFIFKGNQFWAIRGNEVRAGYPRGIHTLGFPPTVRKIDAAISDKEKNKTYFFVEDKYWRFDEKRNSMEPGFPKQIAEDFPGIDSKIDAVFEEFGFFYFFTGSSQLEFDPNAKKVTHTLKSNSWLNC
Chain of Cytochrome P450 2C9 (P11712 whole entry): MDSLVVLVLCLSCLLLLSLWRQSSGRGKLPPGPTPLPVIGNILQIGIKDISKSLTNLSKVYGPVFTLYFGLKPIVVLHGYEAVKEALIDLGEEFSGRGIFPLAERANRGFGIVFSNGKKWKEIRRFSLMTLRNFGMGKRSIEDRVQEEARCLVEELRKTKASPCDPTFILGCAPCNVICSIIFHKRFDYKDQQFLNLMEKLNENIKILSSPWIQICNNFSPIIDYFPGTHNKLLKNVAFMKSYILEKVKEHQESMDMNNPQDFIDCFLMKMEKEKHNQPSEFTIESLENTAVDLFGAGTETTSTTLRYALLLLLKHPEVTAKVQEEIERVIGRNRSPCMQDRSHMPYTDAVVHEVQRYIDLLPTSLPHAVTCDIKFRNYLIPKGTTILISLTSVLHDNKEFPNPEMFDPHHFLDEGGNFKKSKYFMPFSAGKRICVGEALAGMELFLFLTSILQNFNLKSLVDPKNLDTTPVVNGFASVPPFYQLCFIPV
Chain of Cytochrome P450 2D6 (P10635 whole entry): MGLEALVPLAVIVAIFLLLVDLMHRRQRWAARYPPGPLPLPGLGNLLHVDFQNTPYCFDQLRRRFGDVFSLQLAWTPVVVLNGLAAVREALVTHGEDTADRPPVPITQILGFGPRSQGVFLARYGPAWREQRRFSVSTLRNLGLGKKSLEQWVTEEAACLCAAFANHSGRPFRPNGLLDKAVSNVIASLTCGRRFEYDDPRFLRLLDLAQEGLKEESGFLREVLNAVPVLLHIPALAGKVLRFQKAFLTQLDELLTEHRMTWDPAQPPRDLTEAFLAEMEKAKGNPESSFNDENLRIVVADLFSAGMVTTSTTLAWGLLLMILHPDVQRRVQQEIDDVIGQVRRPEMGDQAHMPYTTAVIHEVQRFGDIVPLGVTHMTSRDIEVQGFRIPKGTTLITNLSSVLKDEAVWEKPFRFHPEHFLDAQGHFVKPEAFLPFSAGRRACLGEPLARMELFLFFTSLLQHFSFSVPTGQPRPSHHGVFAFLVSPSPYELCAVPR
Chain of Cytochrome P450 3A4 (P08684 whole entry): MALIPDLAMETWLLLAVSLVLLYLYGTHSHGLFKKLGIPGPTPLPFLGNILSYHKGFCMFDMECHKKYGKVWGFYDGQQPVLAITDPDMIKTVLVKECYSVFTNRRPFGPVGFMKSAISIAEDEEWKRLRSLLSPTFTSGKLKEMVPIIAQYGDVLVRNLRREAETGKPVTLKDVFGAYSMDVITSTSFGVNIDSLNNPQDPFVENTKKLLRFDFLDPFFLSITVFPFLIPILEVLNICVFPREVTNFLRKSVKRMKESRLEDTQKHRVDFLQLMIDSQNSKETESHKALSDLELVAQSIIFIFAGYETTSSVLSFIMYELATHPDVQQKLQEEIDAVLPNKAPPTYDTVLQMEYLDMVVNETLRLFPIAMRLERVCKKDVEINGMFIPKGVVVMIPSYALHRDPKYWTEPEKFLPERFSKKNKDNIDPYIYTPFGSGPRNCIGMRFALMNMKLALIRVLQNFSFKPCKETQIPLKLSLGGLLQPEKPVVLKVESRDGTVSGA

| Compound | IC50 (Stromelysin-1) | clearance [1] | IC50 [2] | half-life [3] | Cmax [5] | AUC [6] | IC50 [7] | IC50 [8] | IC50 [9] | IC50 [10] | concentration at 2 h [11] | bioavailability [12] | IC50 (Collagenase 3) | concentration at 8 h [13] | metabolised at 0.5 h [14] | metabolised at 0.5 h [15] | Tmax [16] | IC50 [17] | further results |
| --- | --- | --- | --- | --- | --- | --- | --- | --- | --- | --- | --- | --- | --- | --- | --- | --- | --- | --- | --- |
| Cn1ccnc1[C@]1(CNC(=O)c2cc3cc(Cl)ccc3o2)NC(=O)NC1=O | 38000 nM | 13 mL/min/kg | 110 nM | 4.2 h | 4100 ng/mL | 8100 ng·h/mL | > 100000 nM | 7500 nM | 5 nM | 9 nM | 2200 ng/mL | 58% | 4200 nM | 80 ng/mL | 13% | 17% | 0.33 h |  | ED50 (Rattus norvegicus [4]): 75 mg/kg; inhibition (INH) (Cytochrome P450 2D6): < 5%; inhibition (INH) (Cytochrome P450 2C9): < 5%; inhibition (INH) (Cytochrome P450 3A4): < 5% |
| Cc1cccnc1[C@]1(CNC(=O)c2cc3cc(Cl)ccc3o2)NC(=O)NC1=O (racemic) | 20000 nM |  | 1700 nM |  |  |  | 18000 nM | 6100 nM | 17 nM | 19 nM |  |  | 3100 nM |  |  |  |  |  |  |
| C[C@@]1(O)CCCN(S(=O)(=O)c2ccc(OCc3ccc(F)cc3Cl)cc2)[C@H]1C(=O)NO | 3 nM |  | 18 nM |  |  |  | 150 nM | 5 nM | 1 nM | 1 nM | 1900 ng/mL |  | 1 nM | 840 ng/mL |  |  |  | 7 nM |  |
| C[C@]1(CNC(=O)COc2ccc(Cl)cc2)NC(=O)NC1=O | 50000 nM |  | 620 nM |  |  |  | > 50000 nM | 24000 nM | 74 nM | 350 nM | 430 ng/mL |  | 7000 nM | 50 ng/mL |  |  |  |  |  |
| Cn1ccnc1[C@]1(CNC(=O)c2cc3cc(C(F)(F)F)ccc3o2)NC(=O)NC1=O | 69000 nM | 4.8 mL/min/kg | 35 nM | 4.3 h | 3200 ng/mL | 8500 ng·h/mL | 86000 nM | 11000 nM | 4 nM | 4 nM | 1100 ng/mL | 25% | 30000 nM | 90 ng/mL | 7% | < 5% | 1.6 h | 10000 nM | ED50 (Rattus norvegicus [4]): 30 mg/kg; inhibition (INH) (Cytochrome P450 2D6): < 5%; inhibition (INH) (Cytochrome P450 2C9): < 5%; inhibition (INH) (Cytochrome P450 3A4): < 5%; inhibition (Rattus norvegicus [18]): Dose-dependent effect |
| O=C1NC(=O)[C@](CNC(=O)c2cc3cc(Cl)ccc3o2)(c2ccccc2)N1 | 3000 nM |  | 420 nM |  |  |  | 3500 nM | 2100 nM | 12 nM | 22 nM | < 200 ng/mL |  | 720 nM |  |  |  |  | 5400 nM |  |
| O=C1NC(=O)[C@](CNC(=O)c2cc3cc(Cl)ccc3o2)(c2nccs2)N1 |  | 4 mL/min/kg |  | 3.2 h | 6900 ng/mL | 28000 ng·h/mL |  |  |  |  | 4300 ng/mL | 72% |  | 1300 ng/mL | 16% | 16% | 0.33 h |  |  |
| Cn1nccc1[C@]1(CNC(=O)c2cc3cc(Cl)ccc3o2)NC(=O)NC1=O | 64000 nM |  | 530 nM |  |  |  | 8600 nM | 7100 nM | 22 nM | 19 nM |  |  | 4700 nM |  |  |  |  |  |  |
| C[C@]1(CNC(=O)c2cc3cc(Cl)ccc3o2)NC(=O)NC1=O (racemic) |  |  | 2400 nM |  |  |  |  |  | 110 nM | 150 nM |  |  |  |  |  |  |  |  |  |
